Laboratory results taken from PMC6253875, “Synthesis and Evaluation of Non-peptidic Cysteine Protease Inhibitors of P. falciparum Derived from Etacrynic Acid” (Molecules, 2008).

Assays:
P. falciparum strain W2 = details: read-out: P. f. 3D7/W2, IC50; cited from earlier work
P. falciparum strain 3D7 = assay: Antiplasmodial activity in vitro, Hoechst-33258 fluorometric assay or parasite lactate dehydrogenase test; type: cell-based; details: Plasmodium falciparum, 3D7, read-out: P. f. 3D7/W2, IC50
Procedure: Recombinant falcipain-2 and falcipain-3 were produced as previously described. Inhibitory activities against recombinant falcipain-2 and falcipain-3 were evaluated in fluorometric microplate assays using the substrates Cbz-Phe-Arg-AMC and Cbz-Leu-Arg-AMC (AMC, 7-amino-4-methyl-coumarin). The cysteine protease inhibitor E-64 was used as a positive control. The solvent DMSO was used as negative control. […] The in vitro data for the etacrynic acid derivatives are compared to those of the well known drug chloroquine and to E-64.
IC50 values for inhibition of falcipain-2 and falcipain-3 were determined as described previously using the fluorogenic substrates Cbz-Phe-Arg-AMC and Cbz-Leu-Arg-AMC, respectively (AMC, 7-amino-4 methylcoumarin). As a positive control the well-known cysteine protease inhibitor E-64 [7, 25, 26] and as a negative control the solvent (DMSO) was used. Dose-dependent effects of compounds on parasite development (P. falciparum strain W2) were quantified by flow cytometry according to a previously published method. First, a screening with inhibitor concentrations of […] was performed and the percentage activity of infected red blood cells (RBCs) relative to the negative control was determined. […] Chloroquine and E-64 were used as positive controls, and the solvent DMSO was used as a negative control. For selected compounds assays with the P. falciparum strain 3D7 were performed using a fluorometric assay with Hoechst-33258 [28], or the microculture tetrazolium test measuring parasite lactate dehydrogenase activity. The parasites were cultivated in vitro as described previously. Compounds were screened at concentrations between 1 nM and 100 μM. Synchronized ring stages were plated in 96-well plates at a parasitemia of 1%, in the presence of the compounds (dissolved in DMSO). Incubation of parasites with DMSO alone at a concentration of 0.5% v/v was used as a negative control. IC50 values were calculated by non-linear regression analyses using the programs GaphPad® Prism 4 and GraFit® [31, 32].

For `CCN(CC)CCCC(C)Nc1ccnc2cc(Cl)ccc12` (centres unmarked) [CQ, chloroquine, reference compound], the IC50 (P. falciparum strain W2) is listed as 240 nM and the IC50 (P. falciparum strain 3D7) is listed as 10 ± 4.8 nM.
